Here are results for 54 compounds from patent publication US9497963B2, “Methods and compositions for control of gypsy moth, Lymantria dispar” (Simon Fraser University, priority 2008, dated 2016).

SMILES strings stand for the structures.

The test system of one assay is male gypsy moth antenna. Put plainly: Coupled gas chromatographic-electroantennographic detection (GC-EAD). To be noted: EAD peak size and shape (sharp/broad). Details: species or system Lymantria dispar. An excerpt:
In GC-EAD assays, the analyte is processed by gas chromatography (GC). The column effluent is split, such that molecules of each chromatographic peak arrive simultaneously at the flame ionization detector of the GC and at an anectomized but otherwise intact insect antenna as the biological detector. This procedure detects specific compounds in the analyte that elicit an electrical potential from the antenna.
For GC-EAD recordings, an antenna was carefully dislodged from a male moth's head, and the antennal base placed into the opening of a glass capillary electrode (0.58 mm ID×65 mm length) (A-M Systems, Inc., Carlsborg, Wash., USA) filled with saline solution. The tip of the antenna was removed by spring microscissors (Fine Science Tools Inc., North Vancouver, British Columbia, Canada) and then placed into the opening of the recording electrode mounted on a portable micromanipulator and positioned in front of a constant stream of warm air (Praxair Canada Inc., Mississauga, Ontario, Canada) which delivered the GC column eluent. […] Identical retention times of compounds detected by the flame ionization detector of the GC and by the insect antenna allowed assignment of antennal responses to specific compounds in the eluent.
As to `CCCCOc1ccccc1OCC` [3a{2,4}, 1-ethoxy-2-butoxy benzene], the GC-EAD activity entry is recorded as “++ sharp”. Same read-out and setting: under `C=CCOc1ccccc1OCCC` [3a{3,6}, 1-allyloxy-2-propoxybenzene] stands “++ broad”; under `COc1ccccc1OCCC(C)C` [3a{1,5}, 1-methoxy-2-(3-methyl-butoxy) benzene], “+ broad”; under `C=CCOc1ccccc1OC` [3a{1,6}, 1-allyloxy-2-methoxy benzene], “+ sharp”. Consider `CCCCOc1ccccc1OCCC(C)C` [3a{4,5}, 1-butoxy-2-(3-methyl-butoxy) benzene], for which the GC-EAD activity entry is “+ broad”.

For the compound `C=CCOc1ccc(OCCCC)cc1` [3c{4,6}, 1-allyloxy-4-butoxy benzene], the GC-EAD activity result is on record as “None”. Still for that read-out and setting: under `C=CCOc1ccccc1OCC` [3a{2,6}, 1-allyloxy-2-ethoxy benzene] stands “+ broad”; under `CCCOc1cccc(OCC)c1` [3b{2,3}, 1-ethoxy-3-propoxy benzene], “None”; under `CCCCOc1cccc(OCC)c1` [3b{2,4}, 1-butoxy-3-ethoxy benzene], “None”.

For `CCOc1cccc(OCCC(C)C)c1` [3b{2,5}, 1-ethoxy-3-(3-methyl-butyloxy) benzene], the GC-EAD activity entry is on record as “None”. On to `COc1cccc(OCCC(C)C)c1` [3b{1,5}, 1-methoxy-3-(3-methyl-butyloxy) benzene], for which the GC-EAD activity result is on record as “None”. Still for that read-out and setting: then `C=CCOc1ccc(OCC)cc1` [3c{2,6}, 1-allyloxy-4-ethoxybenzene], with “Trace”; and `C=CCOc1ccccc1OCCCC` [3a{4,6}, 1-allyloxy-2-butoxybenzene], with “++ broad”; and `CCOc1ccccc1OC` [3a{1,2}, 1-ethoxy-2-methoxy benzene], with “++ sharp”. Turning to `CCCCOc1ccccc1OC` [3a{1,4}, 1-butoxy-2-methoxy benzene], the GC-EAD activity result was “Trace”. On the same count and under the same terms, then `C=CCOc1ccccc1OCCC(C)C` [3a{5,6}, 1-allyloxy-2-isopentoxybenzene], with “+ broad”; and `CCCCOc1ccccc1OCCC` [3a{3,4}, 1-butoxy-2-propoxy benzene], with “++ sharp”; and `C=CCOc1ccc(OCCC(C)C)cc1` [3c{5,6}, 1-allyloxy-4-isopentoxybenzene], with “None”. The same measure, in the same setting: under `CCCOc1ccccc1OCC` [3a{2,3}, 1-ethoxy-2-propoxy benzene] stands “+ sharp”; under `CCCCOc1cccc(OCCC)c1` [3b{3,4}, 1-butoxy-3-propoxy benzene], “None”.

Regarding `CCCOc1ccccc1OCCC(C)C` [3a{3,5}, 1-(3-methyl-butoxy)-2-propoxy benzene], the GC-EAD activity result is recorded as “+ broad”. The same measure, in the same setting: under `CCCOc1cccc(OC)c1` [3b{1,3}, 1-methoxy-3-propoxy benzene] stands “Trace”.

Take `CCCOc1ccccc1OC` [3a{1,3}, 1-methoxy-2-propoxy benzene]: the GC-EAD activity result is “+ sharp”. Same read-out and setting: under `CCOc1cccc(OC)c1` [3b{1,2}, 1-ethoxy-3-methoxy benzene] stands “Trace”; under `CCCCOc1cccc(OCCC(C)C)c1` [3b{4,5}, 1-butoxy-3-(3-methyl-butyloxy) benzene], “None”; under `CCCOc1cccc(OCCC(C)C)c1` [3b{3,5}, 1-(3-methyl-butyloxy)-3-propoxy benzene], “None”.

`C=CCOc1ccc(OC)cc1` [3c{1,6}, 1-allyloxy-4-methoxybenzene]: the GC-EAD activity entry is recorded as “Trace”. Still for that read-out and setting: under `CCOc1ccccc1OCCC(C)C` [3a{2,5}, 1-ethoxy-2-(3-methyl-butoxy) benzene] stands “++ sharp”.

Turning to `CCCCOc1cccc(OC)c1` [3b{1,4}, 1-butoxy-3-methoxy benzene], the GC-EAD activity result is recorded as “None”.

The assay is the same for the next values; noted with them: male gypsy moth antenna; starting phenols 4, diethers 5 and dihydropyrans 6c from Claisen rearrangement chemistry.
Regarding `C=CCc1cc(OCCCC)ccc1O` [4c{4}, 2-allyl-4-butoxy phenol], the GC-EAD activity result is “None”. Still for that read-out and setting: then `C=CCc1cccc(OC)c1O` [4a{1}, 2-allyl-6-methoxy phenol], with “++ sharp”. Same read-out and setting: then `C=CCc1cccc(OC)c1OCC` [5a{2, 1}], with “Trace”; and `CCCCOc1ccc2c(c1)CC(C)O2` (stereo not drawn) [6c{4}, 5-butoxy-2-methyl-2,3-dihydro benzofuran], with “None”; and `C=CCc1cccc(OCC)c1OCCC` [5a{3, 2}], with “+ broad”.

`CC(C)CCOc1ccc2c(c1)CC(C)O2` (stereo not drawn) [6c{5}, 5-(3-methyl-butoxy)-2-methyl-2,3-dihydro benzofuran]: the GC-EAD activity result is “None”. On the same count and under the same terms, under `C=CCc1cccc(OCC)c1O` [4a{2}, 2-allyl-6-ethoxy phenol] stands “+ sharp”; under `C=CCc1cc(OCC)ccc1O` [4c{2}, 2-allyl-4-ethoxy phenol], “+ sharp”; under `C=CCc1cccc(OC)c1OCCC` [5a{3, 1}], “+ broad”. `C=CCc1cccc(OCCC)c1O` [4a{3}, 2-allyl-6-propoxy phenol]: the GC-EAD activity entry is given as “+ broad”. On the same count and under the same terms, under `COc1ccc2c(c1)CC(C)O2` (stereo not drawn) [6c{1}, 5-methoxy-2-methyl-2,3-dihydro benzofuran] stands “+ sharp”.

For the compound `CCCOc1ccc2c(c1)CC(C)O2` (stereo not drawn) [6c{3}, 5-propoxy-2-methyl-2,3-dihydro benzofuran], the GC-EAD activity result is reported as “Trace”. Consider `C=CCOc1cccc(CC=C)c1OCCC(C)C` [5a{5, 6}], for which the GC-EAD activity result is on record as “None”.

Take `C=CCc1cccc(OCCCC)c1O` [4a{4}, 2-allyl-6-butoxy phenol]: the GC-EAD activity entry was “Trace”. Same read-out and setting: then `C=CCc1cccc(OCCC)c1OCCC(C)C` [5a{5, 3}], with “None”; and `C=CCc1cccc(OCCC(C)C)c1O` [4a{5}, 2-allyl-6-(3-methyl-butoxy) phenol], with “Trace”.

In the case of `C=CCc1cccc(OCCC)c1OCCCC` [5a{4, 3}], the GC-EAD activity result was “None”.

`C=CCc1cccc(OCCCC)c1OCCC(C)C` [5a{5, 4}]: the GC-EAD activity entry is given as “None”. The same measure, in the same setting: then `CCOc1ccc2c(c1)CC(C)O2` (stereo not drawn) [6c{2}, 5-ethoxy-2-methyl-2,3-dihydro benzofuran], with “Trace”; and `C=CCc1cccc(OC)c1OCCCC` [5a{4, 1}], with “None”; and `C=CCc1cccc(OCC)c1OCCC(C)C` [5a{5, 2}], with “None”. Consider `C=CCc1cc(OCCC)ccc1O` [4c{3}, 2-allyl-4-propoxy phenol], for which the GC-EAD activity result was “Trace”. Consider `C=CCc1cc(OCCC(C)C)ccc1O` [4c{5}, 2-allyl-4-(3-methyl-butoxy) phenol], for which the GC-EAD activity entry was “None”. On the same count and under the same terms, under `C=CCc1cc(OC)ccc1O` [4c{1}, 2-allyl-4-methoxy phenol] stands “++ sharp”; under `C=CCc1cccc(OC)c1OCCC(C)C` [5a{5, 1}], “Trace”.
